Results taken from patent publication US5686255A, “Compositions and methods for diagnosing schizophrenia” (priority 1995, dated 1997).
“Also recorded” adds a separate entry of the source.

How the values were obtained:
[1] = system: Chinese hamster ovary cells which express the cloned dopamine D4 receptor; assay: Spontaneous G protein binding of [35S]GTPγS in membranes of CHO cells expressing the D4 receptor, after cycloleucine pretreatment; format: cell-based; conditions: cells treated with 0.1 mM and 1 mM cycloleucine prior to membrane preparation; versus untreated control membranes; FIG. 5A
Description: The effect of cycloleucine, a known MAT inhibitor, on the binding of [^35 S]GTPγS was tested by treating Chinese hamster ovary cells expressing the D4 receptor with 0.1 mM and 1 mM cycloleucine prior to membrane preparation (FIG. 5A).
Chinese hamster ovary (CHO) cells stably expressing a cloned dopamine D4 receptor were grown as monolayers at 37° (95% O2 /5%CO2) in alpha minimum essential medium supplemented with 2.5% fetal calf serum, 2.5% horse serum, 100 units/ml penicillin, 100 μg/ml streptomycin, 0.25 μg/ml fungizone and 400 μg/ml G418.
Cells were washed twice with phosphate-buffered saline (137 mM NaCl, 2.6 mM KCl, 10 mM Na2 HPO4, 1.8 mM KH2 PO4), harvested with a rubber policeman, and pelleted at 4° at 200× g. The pellet was resuspended in 5 ml/dish of lysis buffer (5 mM Tris-HCL, pH 7.5, 5 mM EDTA, 5 mM EGTA, 0.1 mM phenylmethylsulfonyl fluoride) at 4° and was homogenized with a Dounce homogenizer. […]
[^35 S]GTPγS binding was measured with a modification of the assay used by Hilf and Jakobs (Eur J Pharmacol 172: 155-163 (1989)). […] The filters were washed four times (with 4 ml of 50 mM Tris.cndot.HCl, pH 7.5, containing 5 mM MgCl2 and 100 mM NaCl) and then counted in scintillation cocktail. Nonspecific binding was determined in the presence of 10 μM GTPγS and subtracted from total bound radioactivity.

[2] = system: Chinese hamster ovary cells without the D4 receptor; assay: Spontaneous [35S]GTPγS binding in CHO cells without the D4 receptor; format: cell-based; conditions: FIG. 5B
Description: FIGS. 5A and 5B illustrate graphic representations of the effect of cycloleucine on spontaneous G protein binding of [^35 S]GTPγS.

SMILES: NC1(C(=O)O)CCCC1 [cycloleucine]
- binding of [35S]GTPγS to the membranes (spontaneous G protein activation) [1]: inhibit spontaneous G protein binding of [^35 S]GTPγS; also recorded: progressively reduced by 0.1 mM and 1 mM cycloleucine pretreatment to levels significantly lower than the untreated control membranes
- effect on spontaneous [35S]GTPγS binding [2]: inability of cycloleucine to affect spontaneous [^35 S]GTPγS binding
